Measurements: patent US20220273673A1, “BONE-BINDING COMPOUNDS” (BRIGHAM YOUNG UNIVERSITY, priority 2019, published 2022)

Legend:
[1] = tested on: J774.2 monocyte macrophage lineage cells; experiment: In vitro protein prenylation assay (mevalonate pathway); format: cell-based; conditions: 25 μM or equimolar concentration; 24 hours
Experimental: The assay used was as described by Ali N et al., Small GTPases 6(4):202-11 (2015). Briefly, this involved incubation of cells with the compounds for 24 hours at increasing doses of drugs and then an in vitro prenylation assay being performed on protein extracts. Immunoblotting (western blotting) was carried out to identify an exemplar unprenylated protein, with a band indicating drug activity affecting the mevalonate pathway.

[2] = tested on: MC3T3-E1 cells; experiment: Alkaline phosphatase activity assay (p-nitrophenyl phosphate) in osteoblasts; format: cell-based; conditions: 5 μM; osteogenic media; without rhBMP-2
Experimental: A p-nitrophenyl phosphate assay was performed for alkaline phosphatase activity (Sigma-Aldrich) and normalized to day-3 cells grown in osteogenic media and α-MEM media. Assays were performed in triplicate with two independent repeats.

[3] = Hydroxyapatite (HA) binding assay, HPLC of supernatant; conditions: after 60 minutes of incubation with HA
Experimental: To analyze the reduction in peak height due to HA binding, 100 μL of supernatant was withdrawn at predetermined time points and analyzed by HPLC.

[4] = tested on: cultured cells; conditions: Schindeler et al. 2015; cited from earlier work

Row | Structure (SMILES) | Effect on protein prenylation (unprenylated protein band, western blot) [1] | Alkaline phosphatase expression / osteogenic potential, compound alone [2] | Reduction in peak height on HA incubation (in words) [3] | Pro-osteogenic activity, potentiation of rhBMP-2 [4]
1 | CCCCCN(CCCCC)CCC[C@@H](C)[C@H]1CC[C@H]2[C@@H]3[C@H](OCCCN)C[C@@H]4C[C@H](OCCCN)CC[C@]4(C)[C@H]3CC(OCCCN)[C@]12C (some centres unmarked) [CSA-90] | did not induce a noticeable or comparable protein prenylation effect | increased alkaline phosphatase expression | no, or very low, reduction in peak height | pro-osteogenic activity
2 | NCCCC(O)(P(=O)(O)O)P(=O)(O)O [alendronate] | potent effect on protein prenylation | – | – | –
